Laboratory results reported in publication PMC2992812 (The Biochemical journal, 2010).

Columns and labels:
β2AR–TRHR chimaera = assay: Receptor internalization assay; type: cell-based, human β2AR / rat TRHR; details: stable HEK-293
TRHR–β2AR chimaera [1] = target: T1, TRHR–β2AR chimaera (Rattus norvegicus, UniProt Q01717); assay: [methyl-3H]TRH binding to live cells; parameters: species or system rat TRHR / human β2AR; details: HEK-293, 90 min at 37°C, Scatchard analysis
T1 sequence (Q01717 1-337): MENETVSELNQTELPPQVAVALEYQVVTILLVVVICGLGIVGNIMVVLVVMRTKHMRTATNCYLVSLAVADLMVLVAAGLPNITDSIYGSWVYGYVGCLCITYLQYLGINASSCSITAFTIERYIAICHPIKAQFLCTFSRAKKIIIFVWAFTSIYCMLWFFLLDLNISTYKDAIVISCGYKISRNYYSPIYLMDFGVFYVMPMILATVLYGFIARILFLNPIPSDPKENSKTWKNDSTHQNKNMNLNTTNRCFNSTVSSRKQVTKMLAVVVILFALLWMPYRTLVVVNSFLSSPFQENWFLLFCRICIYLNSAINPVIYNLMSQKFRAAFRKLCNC

β2AR = β2AR (Homo sapiens, UniProt P07550); assay: Fixed-cell ELISA, PKA site; type: cell-based; details: 10 μM H89 pre-incubated 30 min and during 5 min with 1 μM isoprenaline
TRHR [2] = target: T2, TRHR (Rattus norvegicus, UniProt Q01717); assay: Fixed-cell ELISA, GRK site phosphorylation/dephosphorylation of TRHR tail; type: cell-based; details: EC50 (GRK site phosphorylation)
T2 sequence (Q01717 1-412): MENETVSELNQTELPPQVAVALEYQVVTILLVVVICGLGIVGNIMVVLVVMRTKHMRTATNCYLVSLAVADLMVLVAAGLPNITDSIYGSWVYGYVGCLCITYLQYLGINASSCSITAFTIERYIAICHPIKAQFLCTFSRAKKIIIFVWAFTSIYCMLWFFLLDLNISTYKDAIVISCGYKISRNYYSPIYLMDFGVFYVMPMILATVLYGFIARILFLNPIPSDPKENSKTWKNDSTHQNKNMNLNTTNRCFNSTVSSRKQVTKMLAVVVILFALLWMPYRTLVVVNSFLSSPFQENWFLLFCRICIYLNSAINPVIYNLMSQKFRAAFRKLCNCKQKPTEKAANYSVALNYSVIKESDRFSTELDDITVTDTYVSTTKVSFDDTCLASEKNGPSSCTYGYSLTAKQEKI

TRHR [3] = target: T2, TRHR; assay: Receptor internalization assay; type: cell-based; details: 100 nM TRH, after 1 h, HEK-293
TRHR–β2AR chimaera [4] = target: T1, TRHR–β2AR chimaera; assay: Receptor internalization assay; type: cell-based, rat TRHR / human β2AR; details: 100 nM TRH, after 1 h, HEK-293

β2AR, sequence (P07550 whole entry): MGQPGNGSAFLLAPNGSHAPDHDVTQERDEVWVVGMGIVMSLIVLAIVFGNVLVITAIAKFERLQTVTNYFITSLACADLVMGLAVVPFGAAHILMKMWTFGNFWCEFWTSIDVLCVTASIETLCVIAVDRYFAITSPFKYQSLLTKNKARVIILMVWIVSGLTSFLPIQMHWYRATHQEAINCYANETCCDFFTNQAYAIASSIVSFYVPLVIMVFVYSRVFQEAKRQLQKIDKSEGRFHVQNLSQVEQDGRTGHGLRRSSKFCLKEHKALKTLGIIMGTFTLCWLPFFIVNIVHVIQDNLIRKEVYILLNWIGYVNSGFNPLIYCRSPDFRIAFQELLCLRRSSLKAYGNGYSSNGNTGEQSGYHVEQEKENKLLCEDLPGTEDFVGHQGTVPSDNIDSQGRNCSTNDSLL

CC(C)NCC(O)c1ccc(O)c(O)c1 (stereo not drawn) [isoprenaline]
More internalization at 1 μM than at 1 nM isoprenaline (β2AR–TRHR chimaera): 2 fold

[methyl-3H]TRH
Affinity for [methyl-3H]TRH compared with wild-type TRHR (TRHR–β2AR chimaera [1]): reduced affinity

O=S(=O)(NCCNC/C=C/c1ccc(Br)cc1)c1cccc2cnccc12 [H89]
Inhibition of isoprenaline-stimulated PKA site phosphorylation (β2AR): 80%

NC(=O)[C@@H]1CCCN1C(=O)[C@H](Cc1cnc[nH]1)NC(=O)[C@@H]1CCC(=O)N1 [TRH, thyrotropin-releasing hormone]
EC50 (TRHR [2]): 8 nM | Receptor internalized (TRHR [3]): 60% | Receptor internalized (TRHR–β2AR chimaera [4]): 40%
